# Non-standard residues stand in square brackets, D forms with d. Residues, ends and D or L forms follow the SMILES beside them.
# Target: T1, angiotensin converting enzyme (Oryctolagus cuniculus, UniProt P12822)
# T1 construct: the supernatant was further purified with hydroxyapatite to obtain an angiotensin converting enzyme solution; from tissue; host or cells: rabbit lung (acetone powder)
# T1 sequence (P12822 34-1310): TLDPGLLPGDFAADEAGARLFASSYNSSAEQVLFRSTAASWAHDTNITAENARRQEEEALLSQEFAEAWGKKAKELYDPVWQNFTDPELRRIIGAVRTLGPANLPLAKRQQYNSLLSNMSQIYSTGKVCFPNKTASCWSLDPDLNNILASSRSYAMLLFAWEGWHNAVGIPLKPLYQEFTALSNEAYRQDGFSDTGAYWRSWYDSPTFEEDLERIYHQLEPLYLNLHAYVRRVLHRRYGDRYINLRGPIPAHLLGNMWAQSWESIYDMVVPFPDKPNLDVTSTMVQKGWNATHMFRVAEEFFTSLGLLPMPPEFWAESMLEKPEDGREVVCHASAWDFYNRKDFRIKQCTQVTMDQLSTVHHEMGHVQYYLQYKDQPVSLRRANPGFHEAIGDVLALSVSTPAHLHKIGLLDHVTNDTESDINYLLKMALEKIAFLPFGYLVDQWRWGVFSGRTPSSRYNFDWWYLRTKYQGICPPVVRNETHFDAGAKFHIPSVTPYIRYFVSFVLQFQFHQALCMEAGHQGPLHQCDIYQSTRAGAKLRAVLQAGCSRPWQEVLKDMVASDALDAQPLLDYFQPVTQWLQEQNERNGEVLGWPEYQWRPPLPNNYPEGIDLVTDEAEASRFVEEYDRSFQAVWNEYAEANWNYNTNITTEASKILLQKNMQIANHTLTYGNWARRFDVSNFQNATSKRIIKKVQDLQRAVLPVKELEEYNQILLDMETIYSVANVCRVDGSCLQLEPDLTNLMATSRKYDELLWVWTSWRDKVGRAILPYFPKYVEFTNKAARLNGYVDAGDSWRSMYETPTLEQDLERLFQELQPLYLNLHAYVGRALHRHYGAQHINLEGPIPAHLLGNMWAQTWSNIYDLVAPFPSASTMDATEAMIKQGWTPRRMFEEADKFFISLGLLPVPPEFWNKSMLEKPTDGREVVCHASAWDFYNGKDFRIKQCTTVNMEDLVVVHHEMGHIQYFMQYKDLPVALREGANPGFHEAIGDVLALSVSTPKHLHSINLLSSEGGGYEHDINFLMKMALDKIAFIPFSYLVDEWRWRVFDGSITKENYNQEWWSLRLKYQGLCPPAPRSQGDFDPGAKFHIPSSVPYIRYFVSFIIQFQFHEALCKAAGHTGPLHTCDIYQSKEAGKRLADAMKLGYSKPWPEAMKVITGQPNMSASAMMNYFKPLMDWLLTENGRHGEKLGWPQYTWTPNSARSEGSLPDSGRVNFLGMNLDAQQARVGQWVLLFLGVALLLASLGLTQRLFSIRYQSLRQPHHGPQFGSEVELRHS
# Assay: ACE inhibition activity (hippuroylhistidylleucine substrate, hippuric acid absorbance at 228 nm)
# Format: biochemical, rabbit
# Conditions: concentration at which the inhibition rate (E2) was found; not 50%
# Procedure: The ACE inhibition activity of the thus obtained present oligopeptides was measured as follows. Namely, first, 5 g of rabbit lung acetone powder was dissolved in 50 ml of 0.1M sodium borate buffer (pH 8.3), the solution was centrifuged under the conditions of 40,000 G for 40 minutes, and the supernatant was further purified with hydroxyapatite to obtain an angiotensin converting enzyme solution having an enzyme activity of 1 unit/mg protein.
# 0.03 ml portions of aqueous solutions containing in various concentrations any one of the present oligopeptides was placed in test tubes, 0.25 ml portions of hippuroylhistidylleucine (final concentration 5 mM; containing 300 mM NaCl) were added thereto, 0.1 ml portions of the above angiotensin converting enzyme solution were added, and reactions were carried out at 37° C. for 30 minutes.
# Plural of such an experiment were conducted and the inhibition rate was calculated by the following equation: [formula]
row,Structure (SMILES),Concentration giving the inhibition rate [µM]
1,"CC(C)C[C@@H](N)C(=O)N[C@@H](CCCNC(=N)N)C(=O)N1CCC[C@H]1C(=O)O [D--Leu--L--Arg--L--Pro, D-Leu-L-Arg-L-Pro] (H-[dL]-Arg-Pro-OH)",45
2,"CC(C)C[C@H](N)C(=O)NCC(=O)N1CCC[C@H]1C(=O)O [L--Leu--Gly--L--Pro, L-Leu-Gly-L-Pro] (H-Leu-Gly-Pro-OH)",60
3,"CC(C)C[C@H](N)C(=O)N[C@@H](CC(=O)O)C(=O)N1CCC[C@H]1C(=O)O [L--Leu--L--Asp--L--Pro, L-Leu-L-Asp-L-Pro] (H-Leu-Asp-Pro-OH)",182
4,"CC(C)C[C@H](N)C(=O)N[C@@H](CCC(=O)O)C(=O)N1CCC[C@H]1C(=O)O [L--Leu--L--Glu--L--Pro, L-Leu-L-Glu-L-Pro] (H-Leu-Glu-Pro-OH)",24
5,"CC(C)C[C@H](N)C(=O)N[C@H](C(=O)N1CCC[C@H]1C(=O)O)[C@@H](C)O [L--Leu--L--Thr--L--Pro, L-Leu-L-Thr-L-Pro] (H-Leu-Thr-Pro-OH)",3.4
6,"CC(C)C[C@H](N)C(=O)N[C@@H](Cc1ccc(O)cc1)C(=O)N1CCC[C@H]1C(=O)O [L--Leu--L--Tyr--L--Pro, L-Leu-L-Tyr-L-Pro] (H-Leu-Tyr-Pro-OH)",12

# Same assay, conditions: line prints 50% inhibition rate instead of the word IC50; read-out: Concentration giving the inhibition rate (50%)
row,Structure (SMILES),IC50 [µM]
1,"CC(C)C[C@H](N)C(=O)N[C@@H](C)C(=O)N1CCC[C@H]1C(=O)O [L--Leu--L--Ala--L--Pro, L-Leu-L-Ala-L-Pro] (H-Leu-Ala-Pro-OH)",1.4
2,"CC(C)C[C@H](N)C(=O)N[C@@H](Cc1c[nH]cn1)C(=O)N1CCC[C@H]1C(=O)O [L--Leu--L--His--L--Pro, L-Leu-L-His-L-Pro] (H-Leu-His-Pro-OH)",80
3,"CC(C)C[C@H](N)C(=O)N[C@@H](CCCCN)C(=O)N1CCC[C@H]1C(=O)O [L--Leu--L--Lys--L--Pro, L-Leu-L-Lys-L-Pro] (H-Leu-Lys-Pro-OH)",0.6

# Same assay, conditions: rabbit lung ACE, 5 mM hippuroylhistidylleucine, 37° C. 30 minutes; read-out: IC50
row,Structure (SMILES),IC50 [µM]
1,"CC[C@H](C)[C@H](N)C(=O)N[C@@H](CCCNC(=N)N)C(=O)N[C@@H](C)C(=O)N[C@@H](CCC(N)=O)C(=O)N[C@@H](CCC(N)=O)C(=O)O [L--Ile--Arg--L--Ala--L--Gln--L--Gln, L-Ile-L-Arg-L-Ala-L-Gln-L-Gln] (H-IRAQQ-OH)",160
2,"CC[C@H](C)[C@H](N)C(=O)N[C@@H](CCCNC(=N)N)C(=O)N[C@@H](C)C(=O)O [L--Ile--L--Arg--L--Ala, L-Ile-L-Arg-L-Ala] (H-Ile-Arg-Ala-OH)",6.4
3,"CC(C)C[C@H](N)C(=O)N[C@@H](C)C(=O)N[C@@H](C)C(=O)O [L--Leu--L--Ala--L--Ala, L-Leu-L-Ala-L-Ala] (H-Leu-Ala-Ala-OH)",13
4,"CC(C)C[C@H](N)C(=O)N[C@@H](CCCN=C(N)N)C(=O)N1CCC[C@H]1C(=O)O [L--Leu--L--Arg--L--Pro, L-Leu-L-Arg-L-Pro] (H-Leu-Arg-Pro-OH)",0.27
5,"CC(C)C[C@H](N)C(=O)N[C@@H](CC(N)=O)C(=O)N1CCC[C@H]1C(=O)O [L--Leu--L--Asn--L--Pro, L-Leu-L-Asn-L-Pro] (H-Leu-Asn-Pro-OH)",35
6,"CC(C)C[C@H](N)C(=O)N[C@@H](CCC(N)=O)C(=O)N1CCC[C@H]1C(=O)O [L--Leu--L--Gln--L-- Pro, L-Leu-L-Gln-L-Pro] (H-Leu-Gln-Pro-OH)",1.9
7,"CC(C)C[C@H](N)C(=O)N[C@@H](CCC(N)=O)C(=O)N[C@@H](CCC(N)=O)C(=O)O [L--Leu--L--Gln--L--Gln, L-Leu-L-Gln-L-Gln] (H-Leu-Gln-Gln-OH)",100
8,"CC(C)C[C@H](NC(=O)[C@@H](N)CC(C)C)C(=O)N1CCC[C@H]1C(=O)O [L--Leu--L--Leu--L--Pro, L-Leu-L-Leu-L-Pro] (H-Leu-Leu-Pro-OH)",57
9,"CC(C)C[C@H](N)C(=O)N[C@@H](CO)C(=O)N1CCC[C@H]1C(=O)O [L--Leu--L--Ser--L--Pro, L-Leu-L-Ser-L-Pro] (H-Leu-Ser-Pro-OH)",1.7
10,"CC(C)C[C@H](NC(=O)[C@@H](N)Cc1ccccc1)C(=O)N1CCC[C@H]1C(=O)O [L--Phe--L--Leu--L--Pro, L-Phe-L-Leu-L-Pro] (H-Phe-Leu-Pro-OH)",210
11,"N[C@@H](Cc1ccccc1)C(=O)N[C@@H](Cc1ccc(O)cc1)C(=O)O [L--Phe--L--Tyr, L-Phe-L-Tyr] (H-Phe-Tyr-OH)",25
12,"CC(C)[C@H](N)C(=O)N[C@@H](C)C(=O)N[C@@H](C)C(=O)O [L--Val--L--Ala--L--Ala, L-Val-L-Ala-L-Ala] (H-Val-Ala-Ala-OH)",13
13,"CC(C)[C@H](N)C(=O)N[C@@H](C)C(=O)N[C@@H](Cc1ccc(O)cc1)C(=O)O [L--Val--L--Ala--L--Tyr, L-Val-L-Ala-L-Tyr] (H-Val-Ala-Tyr-OH)",16
14,"CC(C)[C@H](N)C(=O)N[C@@H](CO)C(=O)N1CCC[C@H]1C(=O)O [L--Val--L--Ser--Ser--L--Pro, L-Val-L-Ser-L-Pro] (H-Val-Ser-Pro-OH; N-terminus and C-terminus assumed)",10

# Tested on: spontaneous hypertensive rats (SHR)
# Assay: Hypotensive activity in spontaneous hypertensive rats (Tail-Cuff method)
# Format: in vivo, rat
# Conditions: 120 mg/kg intraperitoneally, maximum blood pressure before minus after administration ± S.E., p < 0.01 against saline control
# Procedure: 10-week old spontaneous hypertensive rats (SHR) (produced BY Nihon Rat Co., Ltd.,.male., weight 240 to 280 g, 4 to 6 animals per 1 group) were used as test animals. L-Leu-L-Arg-L-Pro obtained as in Example 12 was dissolved in physiological saline and 120 mg in terms of the effective ingredient of the solution was intraperitoneally administered per kg of animal. As control physiological saline was intraperitoneally administered. Blood pressure was measured before the administration and at regular intervals of time after the administration by the Tail-Cuff method using a bloodless sphygmomanometer for rats and mice TK-350 (produced by Unicom Co., Ltd.)
# The results were shown in Table 2 by (Maximum blood pressure value before the administration-Maximum blood pressure value after the administration) ± S.E.
row,Structure (SMILES),Lowering of blood pressure (mm Hg) 5 hours later [mm Hg]
1,"CC(C)C[C@H](N)C(=O)N[C@@H](CCCNC(=N)N)C(=O)N1CCC[C@H]1C(=O)O [L--Leu--L--Arg--L--Pro, L-Leu-L-Arg-L-Pro] (H-Leu-Arg-Pro-OH)",14 ± 5
